pEC50, pIC50: −log10 of the molar value. Converted amounts (≈) assume the structure as drawn.
Experiments:
[1] = target: T1, Dihydroorotate dehydrogenase (quinone), mitochondrial (Plasmodium falciparum (isolate 3D7), UniProt Q08210); assay: Inhibition of N-terminal His6-tagged recombinant Plasmodium falciparum DHODH (158 to 569 residues) N-terminally truncated soluble domain extracted from Escherichia coli phage resistant BL21-DE3 using CoQD/DHA/DCIP as substrates
T1 sequence (Q08210 whole entry): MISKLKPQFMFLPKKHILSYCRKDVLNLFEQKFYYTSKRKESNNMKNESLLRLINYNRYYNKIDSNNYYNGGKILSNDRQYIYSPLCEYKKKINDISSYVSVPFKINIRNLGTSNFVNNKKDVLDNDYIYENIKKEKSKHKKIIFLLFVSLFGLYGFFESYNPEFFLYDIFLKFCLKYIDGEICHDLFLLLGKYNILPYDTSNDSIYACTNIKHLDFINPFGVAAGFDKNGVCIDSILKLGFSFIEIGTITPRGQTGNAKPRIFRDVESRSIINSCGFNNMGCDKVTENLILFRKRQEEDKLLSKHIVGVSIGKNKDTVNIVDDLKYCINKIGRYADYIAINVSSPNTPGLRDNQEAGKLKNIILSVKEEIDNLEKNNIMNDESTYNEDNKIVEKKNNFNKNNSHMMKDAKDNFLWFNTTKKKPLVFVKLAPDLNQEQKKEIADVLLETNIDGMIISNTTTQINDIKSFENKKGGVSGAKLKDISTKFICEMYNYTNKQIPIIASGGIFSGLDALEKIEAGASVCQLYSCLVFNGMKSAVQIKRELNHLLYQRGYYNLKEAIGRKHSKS

[2] = target: Dihydroorotate dehydrogenase (quinone), mitochondrial (Homo sapiens, UniProt Q02127); assay: Inhibition of C-terminal His6-tagged recombinant human DHODH (29 to 395 residues) N-terminally truncated soluble domain extracted from Escherichia coli phage resistant BL21-DE3 using CoQD/DHA/DCIP as substrates
[3] = Kinetic solubility of compound at pH 6.5 measured after 30 mins by nephelometry; assay type: physicochemical; conditions: buffer; for solubility kinetic at 0.5 h: pH 6.5, read-out: Kinetic_solubility; for Kinetic_solubility: pH 6.5, 0.5 h
[4] = Metabolic stability in human liver microsomes assessed as intrinsic clearance at 0.5 uM incubated for 60 mins in presence of NADPH by tandem quadrupole-Time of Flight MS; assay type: ADME, Microsome; conditions: 1 h
Plasmodium falciparum = assay: Antiparasitic activity against asexual blood stage Plasmodium falciparum 3D7 incubated for 72 hrs by SYBR Green assay; assay type: functional, organism-based; conditions: 3D7, 72 h

Sequence of Dihydroorotate dehydrogenase (quinone), mitochondrial (Homo sapiens, UniProt Q02127) (Q02127 whole entry, the tested form may be a part): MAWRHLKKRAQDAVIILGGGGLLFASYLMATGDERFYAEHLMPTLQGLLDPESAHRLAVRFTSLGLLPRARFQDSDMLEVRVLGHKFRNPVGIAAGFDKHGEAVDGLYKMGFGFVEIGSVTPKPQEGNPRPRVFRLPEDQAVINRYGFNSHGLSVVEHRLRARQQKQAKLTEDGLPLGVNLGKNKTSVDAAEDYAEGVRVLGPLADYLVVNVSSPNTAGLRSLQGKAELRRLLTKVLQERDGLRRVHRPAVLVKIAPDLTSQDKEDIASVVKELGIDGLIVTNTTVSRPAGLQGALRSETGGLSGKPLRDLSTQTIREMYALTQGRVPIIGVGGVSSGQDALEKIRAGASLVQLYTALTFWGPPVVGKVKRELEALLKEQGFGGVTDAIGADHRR

Row | pIC50 [2] | solubility kinetic at 0.5 h [3] [µM] | intrinsic clearance (CLint) [4] [µL/min/mg] | pEC50 (Plasmodium falciparum) | Kinetic_solubility [3] [µM] | Compound | pIC50 [1]
1 | – | – | – | 4.85 | – | CCCn1ccc2c(Cc3ccc(C(F)(F)F)nc3)n(C)nc2c1=O | –
2 | – | – | – | 6.15 | – | Cn1nc2c(=O)n(C3CC3)ncc2c1[C@@](O)(c1cnc(C(F)(F)F)c(Cl)c1)C(F)(F)F | –
3 | 5.68 | 50 (≈ 18.9 µg/mL) | 6 | 9.00 | – | CC[C@@](O)(c1cc(F)c(F)c(F)c1)c1c2ccn(C3CC3)c(=O)c2nn1C | –
4 | < 4.52 | 50 (≈ 21.6 µg/mL) | < 3 | 8.70 | – | Cn1nc2c(=O)n(C3CC3)ccc2c1[C@](O)(c1ccc(C(F)(F)F)nc1)C(F)(F)F | –
5 | 4.80 | 70 (≈ 26.8 µg/mL) | 10 | 7.70 | – | Cn1nc2c(=O)n(C3CC3)cc(Cl)c2c1Cc1ccc(C(F)(F)F)nc1 | –
6 | < 4.52 | 80 (≈ 35.2 µg/mL) | < 3 | 8.40 | – | Cn1nc2c(=O)n(C3CC3)cnc2c1[C@](O)(c1cnc(C(F)(F)F)c(Cl)c1)C1CC1 | –
7 | < 4.52 | 40 (≈ 18.6 µg/mL) | < 3 | 8.52 | – | Cn1nc2c(=O)n(C3CC3)ccc2c1[C@](N)(c1cnc(C(F)(F)F)c(Cl)c1)C(F)(F)F | –
8 | < 4.00 | 50 (≈ 17.5 µg/mL) | 20 | 6.52 | – | CCn1cc(C2CC2)c2c(CN3CCC(F)(F)CC3)n(C)nc2c1=O | –
9 | – | – | – | 6.39 | – | Cn1nc2c(=O)n(C3CC3)ccc2c1[C@@](O)(c1cnc(C(F)(F)F)c(Cl)c1)C(F)(F)F | –
10 | 5.30 | 40 (≈ 15.7 µg/mL) | < 3 | 8.52 | – | CC[C@@](O)(c1ccc(C(F)(F)F)nc1)c1c2ccn(C3CC3)c(=O)c2nn1C | –
11 | 5.07 | 20 (≈ 8.32 µg/mL) | < 3 | 9.00 | – | Cn1nc2c(=O)n(C3CC3)ccc2c1[C@](O)(c1ccc(F)c(Cl)c1)C(F)(F)F | –
12 | < 4.00 | 80 (≈ 34.1 µg/mL) | 6 | 8.30 | – | CCn1cc(C2CC2)c2c([C@H](O)c3cnc(C(F)(F)F)c(Cl)c3)n(C)nc2c1=O | –
13 | 4.17 | 50 (≈ 19.5 µg/mL) | 24 | 8.40 | – | CCn1cc(C2CC2)c2c(Cc3cnc(C(F)(F)F)c(C)c3)n(C)nc2c1=O | –
14 | – | – | – | 8.15 | – | Cc1cc(Nc2ccc(S(F)(F)(F)(F)F)cc2)n2nc(C(C)(F)F)nc2n1 [DSM-265] | –
15 | 4.22 | 50 (≈ 20.5 µg/mL) | 28 | 7.46 | – | CCn1cc(C2CC2)c2c(Cc3cnc(C(F)(F)F)c(Cl)c3)n(C)nc2c1=O | –
16 | < 4.00 | 160 (≈ 62.8 µg/mL) | 15 | 8.10 | – | CCn1cc(C2CC2)c2c([C@H](O)c3ccc(C(F)(F)F)nc3)n(C)nc2c1=O | –
17 | – | 80 (≈ 28 µg/mL) | 26 | 7.03 | – | CCn1cc(C2CC2)c2c(CN3CCCC(F)(F)C3)n(C)nc2c1=O | –
18 | 4.24 | 40 (≈ 15.1 µg/mL) | 74 | 7.46 | – | CCn1cc(C2CC2)c2c(CN3CCC(F)(F)CC3(C)C)n(C)nc2c1=O | –
19 | < 4.00 | 160 (≈ 64.1 µg/mL) | 3.2 | 7.96 | – | CCn1cc(C)c2c([C@H](O)c3cnc(C(F)(F)F)c(Cl)c3)n(C)nc2c1=O | –
20 | < 4.00 | 80 (≈ 31.4 µg/mL) | < 3 | 8.15 | – | CCn1ccc2c([C@](O)(c3ccc(C(F)(F)F)nc3)C3CC3)n(C)nc2c1=O | –
21 | < 4.52 | 20 (≈ 8.8 µg/mL) | 5.4 | 7.82 | – | Cn1nc2c(=O)n(C3CC3)ncc2c1[C@](O)(c1cnc(C(F)(F)F)c(Cl)c1)C1CC1 | –
22 | – | – | 3.7 | 9.00 | > 100 | CC[C@@](O)(c1cnc(C(F)(F)F)c(Cl)c1)c1c2ncn(C3CC3)c(=O)c2nn1C | –
23 | – | – | – | 5.68 | – | CCn1cc(C2CC2)c2c([C@@H](O)c3ccc(C(F)(F)F)nc3)n(C)nc2c1=O | –
24 | – | 50 (≈ 19.7 µg/mL) | 3.2 | 9.00 | – | CC[C@@](O)(c1cc(F)c(Cl)c(F)c1)c1c2ccn(C3CC3)c(=O)c2nn1C | –
25 | 5.37 | 5 (≈ 2.33 µg/mL) | < 3 | – | – | Cn1nc2c(=O)n(C3CC3)ccc2c1[C@](O)(c1ccc(C(F)(F)F)c(Cl)c1)C(F)(F)F | –
26 | < 4.00 | 80 (≈ 32.1 µg/mL) | 25 | 9.00 | – | CCn1ccc2c([C@](C)(O)c3cnc(C(F)(F)F)c(Cl)c3)n(C)nc2c1=O | –
27 | < 4.52 | – | 18 | 7.74 | > 100 | CCn1cc(C2CC2)c2c(CN3CCC(C)(F)CC3)n(C)nc2c1=O | –
28 | < 4.52 | – | < 3 | 8.70 | < 5 | Cn1nc2c(=O)n(C3CC3)ncc2c1[C@](O)(c1ccc(C(F)(F)F)c(Cl)c1)C1CC1 | –
29 | – | 20 (≈ 8.52 µg/mL) | < 3 | 8.52 | – | CC[C@@](N)(c1ccc(C(F)(F)F)c(Cl)c1)c1c2cnn(C3CC3)c(=O)c2nn1C | –

Row | Compound | pIC50 [2] | solubility kinetic at 0.5 h [3] [µM] | intrinsic clearance (CLint) [4] [µL/min/mg] | pEC50 (Plasmodium falciparum) | Kinetic_solubility [3] [µM] | pIC50 [1]
30 | Cn1nc2c(=O)n(C3CC3)ncc2c1[C@](O)(c1ccc(C(F)(F)F)c(Cl)c1)C(F)(F)F | 4.66 | 5 (≈ 2.33 µg/mL) | < 3 | – | – | 8.05
31 | Cn1nc2c(=O)n(C3CC3)cnc2c1[C@@](O)(c1cnc(C(F)(F)F)c(Cl)c1)C(F)(F)F | – | – | – | 6.26 | – | 5.35
32 | CCn1cc(C)c2c([C@@H](O)c3ccc(C(F)(F)F)nc3)n(C)nc2c1=O | – | – | – | 6.66 | – | 6.55
33 | CCn1cc(C2CC2)c2c(CN3CCC(F)(F)C(C)(C)C3)n(C)nc2c1=O | < 4.52 | 12.5 (≈ 4.73 µg/mL) | 160 | 7.82 | – | 7.68
34 | Cn1nc2c(=O)n(C3CC3)ccc2c1Cc1ccc(C(F)(F)F)nc1 | < 4.00 | – | – | 6.23 | – | 6.04
35 | CC[C@](O)(c1cnc(C(F)(F)F)c(Cl)c1)c1c2cnn(C3CC3)c(=O)c2nn1C | – | – | – | 5.77 | – | –
36 | CC[C@](O)(c1cnc(C(F)(F)F)c(Cl)c1)c1c2ccn(C3CC3)c(=O)c2nn1C | – | – | – | 6.36 | – | 4.85
37 | CC[C@](N)(c1cnc(C(F)(F)F)c(Cl)c1)c1c2ncn(C3CC3)c(=O)c2nn1C | – | – | – | 6.01 | – | 5.38
38 | Cn1nc2c(=O)n(C3CC3)cnc2c1[C@](O)(c1ccc(C(F)(F)F)c(C#N)c1)C(F)(F)F | 4.74 | 40 (≈ 18.3 µg/mL) | < 3 | – | – | 7.85
39 | CC[C@@](O)(c1ccc(C(F)(F)F)c(Cl)c1)c1c2cnn(C3CC3)c(=O)c2nn1C | – | 6.25 (≈ 2.67 µg/mL) | < 3 | – | – | 8.22
40 | CCn1cc(Cl)c2c(Cc3ccc(N4CCN(C)CC4)nc3)n(C)nc2c1=O | – | – | – | 5.57 | – | 5.82
41 | CC[C@@](N)(c1ccc(C(F)(F)F)c(Cl)c1)c1c2ncn(C3CC3)c(=O)c2nn1C | – | – | < 3 | 9.00 | > 100 | 8.05
42 | Cn1nc2c(=O)n(C3CC3)ccc2c1[C@](C)(O)c1cnc(C(F)(F)F)c(Cl)c1 | < 4.52 | 80 (≈ 33 µg/mL) | 6.8 | 9.00 | – | –
43 | Cn1nc2c(=O)n(CCC3CC3)ccc2c1Cc1ccc(C(F)(F)F)nc1 | – | – | – | 4.85 | – | < 4.00
44 | CC(C)n1ccc2c(Cc3ccc(C(F)(F)F)nc3)n(C)nc2c1=O | < 4.00 | – | – | 5.18 | – | 4.85
45 | CC[C@](N)(c1cnc(C(F)(F)F)c(Cl)c1)c1c2ccn(C3CC3)c(=O)c2nn1C | – | – | – | 5.64 | – | 4.77
46 | CCn1ccc2c([C@@](O)(CC)c3cnc(C(F)(F)F)c(Cl)c3)n(C)nc2c1=O | – | 40 (≈ 16.6 µg/mL) | 9.3 | – | – | 7.57
47 | CCn1cc(C)c2c([C@@H](N)c3ccc(C(F)(F)F)nc3)n(C)nc2c1=O | – | – | – | 5.59 | – | 5.96
48 | Cn1nc2c(=O)n(C)ccc2c1Cc1ccc(C(F)(F)F)nc1 | – | – | – | 5.22 | – | 5.35

Source: ChEMBL document CHEMBL6087456 (J Med Chem, 2025)
